The term solubility denotes the concentration that dissolves in the medium under given conditions.

Consider four compounds from US20200179273A1, “LONG-ACTION IMPLANT FOR TREATMENT OF INFECTIOUS DISEASES” (Merck Sharp & Dohme Corp., priority 2017, published 2020).

Data set [1] in a line: In vitro drug release from compressed implants. The data set is classed as physicochemical. Particulars: compressed implant 80wt % drug, PBS with 0.2 or 5wt % SDS, 37° C., 50 rpm. The method, then: The in vitro release rate of the drug was determined by incubating individual implants in a glass vial with phosphate buffered saline (PBS) containing 0.2 or 5wt % sodium dodecyl sulfate (SDS) at 37° C., and 50 rpm shaking in an Innova 42 incubator. The volume of media was sufficient to maintain sink conditions. Sink conditions are defined as the drug concentration maintained at or below ⅓ of the maximum solubility. Samples were removed at selected time points, and centrifuged at 20,800×g for 8 min. The supernatant was analyzed by HPLC.

Data set [2] is described as follows: Solubility of anti-tuberculosis compounds in PBS. It is filed as physicochemical. The settings on record: aqueous buffer.
Data set [3] in a line: In vivo drug release: drug concentration in blood plasma after subcutaneous implants. The settings on record: rat, three compressed implants subcutaneous; for concentration at 9 days / concentration at 16 days / concentration at 30 days / concentration at 44 days / concentration at 58 days / concentration at 0.167 days / concentration at 0.25 days / concentration at 1 day / concentration at 2 days / concentration at 0.083 days: Wistar Han, plasma, sc; for concentration at 9 days / concentration at 16 days / concentration at 30 days / concentration at 44 days / concentration at 0.167 days / concentration at 0.25 days / concentration at 1 day / concentration at 2 days: 60 mg/animal; for concentration at 58 days / concentration at 0.083 days: 60 mg. Also noted: species or system Wistar Han rat. The source says:
For each implantation, a Wistar Han rat was anesthetized using isoflurane to effect prior to subcutaneous dose administration. Using a trocar needle, three implants from each formulation example above were placed subcutaneously in the intrascapular region of a rat. Three animals were used for each formulation. Animals were monitored until recovered. At indicated time points, samples of blood were obtained from anesthetized animals (using isoflurane) and processed to plasma for determination of drug concentration by LC/MS. Results are shown in the below table (Table 4).

Setting [4] is: dissolution media PBS, 37° C., read-out: Solubility at 37° C.
Setting [5] is: in phosphate buffered saline (PBS), read-out: aqueous solubility.

Molecules are shown by their SMILES. Converted amounts (≈) assume the structure as drawn. Where two headings read alike, the source gives them in different places.

As to `C[C@]1(COc2ccc(N3CCC(Oc4ccc(OC(F)(F)F)cc4)CC3)cc2)Cn2cc([N+](=O)[O-])nc2O1` [delamanid], the “Cumulative in vitro drug release Avg.” value in data set [1] (1 day) was found to be 20.3%; in data set [1] (11 days) it was 26.8%; in data set [1] (20 days) it was 38.3%.

Consider `COc1nc2ccc(Br)cc2cc1[C@@H](c1ccccc1)[C@@](O)(CCN(C)C)c1cccc2ccccc12` [bedaquiline], for which the “Cumulative in vitro drug release Avg.” value in data set [1] (1 day) worked out at 10.9%; in data set [1] (11 days), 41.4%; in data set [1] (20 days), 57.2%. The solubility in data set [2] (setting [4]) was 129 µg/mL (≈ 232 µM); in data set [2] (setting [5]), below 200 µg/mL. The “Drug concentration in blood plasma Avg.” value in data set [3] (0.083 days), in data set [3] (0.167 days), in data set [3] (0.25 days), in data set [3] (1 day) and in data set [3] (2 days) was “BLQ” throughout. In data set [3], the concentration at 9 days stood at 81 nM. The same compound registered a concentration at 16 days in data set [3] of 63.6 nM. The concentration at 30 days in data set [3] came out at 51.7 nM. In data set [3], this compound gave a concentration at 44 days of 70.3 nM. Further, in data set [3], the concentration at 58 days was 60.2 nM.

With `CO[C@H]1/C=C/O[C@@]2(C)Oc3c(C)c(O)c4c(c3C2=O)C2=NC3(CCN(CC(C)C)CC3)NC2=C(NC(=O)/C(C)=C\C=C\[C@H](C)[C@H](O)[C@@H](C)[C@@H](O)[C@@H](C)[C@H](OC(C)=O)[C@@H]1C)C4=O` [rifabutin], the “Cumulative in vitro drug release Avg.” value in data set [1] (1 day) is recorded as 40.6%. In addition, the “Cumulative in vitro drug release Avg.” value in data set [1] (11 days) worked out at 107.7%. Moreover, in data set [2] (setting [4]), the solubility was found to be 101 µg/mL (≈ 119 µM). The solubility in data set [2] (setting [5]) is below 200 µg/mL. In data set [3] (0.167 days), this compound returned a concentration at 0.167 days of 164 nM. For the same compound, the concentration at 0.25 days in data set [3] (0.25 days) worked out at 244 nM. In addition, in data set [3] (1 day), the concentration at 1 day turned out to be 209 nM. In data set [3] (2 days), the concentration at 2 days came out at 182 nM. In data set [3], this compound returned a concentration at 9 days of 119 nM, a concentration at 16 days of 75.9 nM, a concentration at 30 days of 69.3 nM and a concentration at 44 days of 42.3 nM. Further, the concentration at 58 days in data set [3] came out at 38.3 nM. Also, the concentration at 0.083 days in data set [3] (0.083 days) was 81.9 nM.

`CO[C@H]1/C=C/O[C@@]2(C)Oc3c(C)c(O)c4c(O)c(c(/C=N/N5CCN(C6CCCC6)CC5)c(O)c4c3C2=O)NC(=O)/C(C)=C\C=C\[C@H](C)[C@H](O)[C@@H](C)[C@@H](O)[C@@H](C)[C@H](OC(C)=O)[C@@H]1C` [rifapentine]: the solubility in data set [2] (setting [4]) is 134 µg/mL (≈ 153 µM). Besides, the solubility in data set [2] (setting [5]) was below 200 µg/mL. Also, in data set [3] (0.167 days), the concentration at 0.167 days stood at 803 nM. This compound also showed a concentration at 0.25 days in data set [3] (0.25 days) of 1250 nM. Further, the concentration at 1 day in data set [3] (1 day) was found to be 3530 nM. Moreover, in data set [3] (2 days), the concentration at 2 days is 5210 nM. In data set [3], this compound returned a concentration at 9 days of 5980 nM, a concentration at 16 days of 2260 nM, a concentration at 30 days of 1010 nM and a concentration at 44 days of 1460 nM. For the same compound, in data set [3], the concentration at 58 days was found to be 477 nM. Besides, the concentration at 0.083 days in data set [3] (0.083 days) came to 630 nM.
